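Following 48 hours of exposure in 96-well plates, responses at five concentrations were used to interpolate endpoints linearly. GI50 marks 50% less growth.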 The source made the active and inactive calls. No stated cut-off is given here; in the data, active = GI50 up to about 1.1 µM and inactive = higher.
How the values were obtained:
Assay in all cases: NCI tumour cell line growth inhibition, 48 h
[1] = system: LOX IMVI
[2] = system: UACC-257
[3] = system: NCI-H226
[4] = system: 786-0
[5] = system: U-251
[6] = system: LXFL 529
[7] = system: OVCAR-8
[8] = system: KM12
[9] = system: SK-MEL-28
[10] = system: SN12C
[11] = system: HCT-116
[12] = system: NCI-H522
[13] = system: DLD-1
[14] = system: M14
[15] = system: K562
[16] = system: NCI-H23
[17] = system: HCT-15
[18] = system: SNB-19
[19] = system: OVCAR-4
[20] = system: A549
[21] = system: HCC 2998
[22] = system: A498
[23] = system: SF-539
[24] = system: OVCAR-5
[25] = system: HOP-18
[26] = system: HL-60
[27] = system: EKVX
[28] = system: SR
[29] = system: SNB-75
[30] = system: TK-10
[31] = system: UO-31
[32] = system: IGROV-1
[33] = system: ACHN
[34] = system: SF-268
[35] = system: HOP-62
[36] = system: CAKI-1
[37] = system: HOP-92
[38] = system: SK-MEL-5
[39] = system: CCRF-CEM
[40] = system: COLO 205
[41] = system: SF-295
[42] = system: OVCAR-3
[43] = system: SNB-78
[44] = system: NCI-H460
[45] = system: SW-620
[46] = system: RXF 393
[47] = system: SK-MEL-2
[48] = system: UACC-62
[49] = system: KM-20L2
[50] = system: M19-MEL
[51] = system: Malme-3M
[52] = system: SK-OV-3
[53] = system: HT-29
[54] = system: DMS-273
[55] = system: MOLT-4
[56] = system: RPMI-8226
[57] = system: DMS-114

In the case of `Nc1nc[n+](Cc2ccccc2)c2ncn(Cc3ccccc3)c12`, the GI50 [1] is reported as > 100 µM (inactive), the GI50 [2] is reported as 63.8 µM (inactive) and the GI50 [3] is reported as > 100 µM (inactive). For the same compound, the GI50 [4] was > 100 µM (inactive), the GI50 [5] was 45.7 µM (inactive) and the GI50 [6] was > 100 µM (inactive). The GI50 [7] was > 100 µM (inactive), the GI50 [8] was 68.9 µM (inactive) and the GI50 [9] was > 100 µM (inactive). For the same compound, the GI50 [10] was > 100 µM (inactive), the GI50 [11] was 37.9 µM (inactive) and the GI50 [12] was 81.3 µM (inactive). For the same compound, the GI50 [13] was 80.2 µM (inactive), the GI50 [14] was 23.7 µM (inactive) and the GI50 [15] was 37.7 µM (inactive). The GI50 [16] was 97.7 µM (inactive), the GI50 [17] was greater than 100 µM and the GI50 [18] was > 100 µM (inactive). The GI50 [19] was > 100 µM (inactive), the GI50 [20] was > 100 µM (inactive) and the GI50 [21] was 15.5 µM (inactive). The GI50 [22] was 55.1 µM (inactive), the GI50 [23] was > 100 µM (inactive) and the GI50 [24] was > 100 µM (inactive). The GI50 [25] was > 100 µM (inactive), the GI50 [26] was 32.3 µM (inactive) and the GI50 [27] was > 100 µM (inactive). The GI50 [28] was 35.3 µM (inactive), the GI50 [29] was 34.9 µM (inactive) and the GI50 [30] was 28.4 µM (inactive). The GI50 [31] was 39.3 µM (inactive), the GI50 [32] was > 100 µM (inactive) and the GI50 [33] was > 100 µM (inactive). For the same compound, the GI50 [34] was > 100 µM (inactive), the GI50 [35] was 32.6 µM (inactive) and the GI50 [36] was 54.3 µM (inactive). For the same compound, the GI50 [37] was 19.2 µM (inactive), the GI50 [38] was 97.5 µM (inactive) and the GI50 [39] was > 100 µM (inactive). For the same compound, the GI50 [40] was 26.7 µM (inactive), the GI50 [41] was 63.8 µM (inactive) and the GI50 [42] was 38.6 µM (inactive). The GI50 [43] was 75 µM (inactive), the GI50 [44] was > 100 µM (inactive) and the GI50 [45] was > 100 µM (inactive). For the same compound, the GI50 [46] was 20.2 µM (inactive), the GI50 [47] was > 100 µM (inactive) and the GI50 [48] was 32.4 µM (inactive). For the same compound, the GI50 [49] was 55.2 µM (inactive), the GI50 [50] was > 100 µM (inactive) and the GI50 [51] was 84.3 µM (inactive). For the same compound, the GI50 [52] was > 100 µM (inactive), the GI50 [53] was 31.6 µM (inactive) and the GI50 [54] was > 100 µM (inactive).

With `Cc1ccc2nc3c(Cl)c(C)c(=O)cc-3sc2c1` the GI50 [1] was 42.1 µM (inactive), the GI50 [7] was 51.1 µM (inactive) and the GI50 [9] was > 10 µM (inactive). The GI50 [12] was 35.3 µM (inactive), the GI50 [15] was 26.9 µM (inactive) and the GI50 [20] was 70.5 µM (inactive). For the same compound, the GI50 [22] was > 100 µM (inactive), the GI50 [25] was > 10 µM (inactive) and the GI50 [26] was 26.4 µM (inactive). For the same compound, the GI50 [28] was > 10 µM (inactive), the GI50 [31] was 52.5 µM (inactive) and the GI50 [32] was > 10 µM (inactive). For the same compound, the GI50 [55] was 10.7 µM (inactive), the GI50 [36] was > 10 µM (inactive) and the GI50 [37] was 64 µM (inactive). For the same compound, the GI50 [38] was 60.3 µM (inactive), the GI50 [39] was 7.18 µM (inactive) and the GI50 [40] was > 10 µM (inactive). The GI50 [41] was 41.2 µM (inactive), the GI50 [45] was 83.4 µM (inactive) and the GI50 [46] was 21.5 µM (inactive). The GI50 [56] was 23 µM (inactive), the GI50 [52] was > 10 µM (inactive) and the GI50 [54] was 76 µM (inactive).

With `Cc1cc(C)n(-c2nsc3ccccc23)n1` the GI50 [1] was > 100 µM (inactive), the GI50 [2] was > 100 µM (inactive) and the GI50 [5] was > 100 µM (inactive). For the same compound, the GI50 [6] was > 100 µM (inactive), the GI50 [7] was > 100 µM (inactive) and the GI50 [8] was > 100 µM (inactive). The GI50 [9] was > 100 µM (inactive), the GI50 [10] was > 100 µM (inactive) and the GI50 [11] was > 100 µM (inactive). For the same compound, the GI50 [14] was > 100 µM (inactive), the GI50 [15] was 89.1 µM (inactive) and the GI50 [16] was > 100 µM (inactive). For the same compound, the GI50 [17] was greater than 100 µM, the GI50 [18] was > 100 µM (inactive) and the GI50 [19] was > 100 µM (inactive). The GI50 [20] was > 100 µM (inactive), the GI50 [21] was > 100 µM (inactive) and the GI50 [23] was > 100 µM (inactive). For the same compound, the GI50 [24] was > 100 µM (inactive), the GI50 [25] was 15.8 µM (inactive) and the GI50 [26] was > 100 µM (inactive). For the same compound, the GI50 [27] was 91.4 µM (inactive), the GI50 [28] was > 100 µM (inactive) and the GI50 [29] was 26.9 µM (inactive). For the same compound, the GI50 [30] was > 100 µM (inactive), the GI50 [31] was > 100 µM (inactive) and the GI50 [32] was > 100 µM (inactive). The GI50 [33] was > 100 µM (inactive), the GI50 [34] was > 100 µM (inactive) and the GI50 [57] was > 100 µM (inactive). The GI50 [55] was > 100 µM (inactive), the GI50 [35] was > 100 µM (inactive) and the GI50 [37] was 80.5 µM (inactive). For the same compound, the GI50 [38] was > 100 µM (inactive), the GI50 [39] was > 100 µM (inactive) and the GI50 [40] was > 100 µM (inactive). For the same compound, the GI50 [42] was > 100 µM (inactive), the GI50 [43] was > 100 µM (inactive) and the GI50 [44] was > 100 µM (inactive). The GI50 [45] was > 100 µM (inactive), the GI50 [46] was > 100 µM (inactive) and the GI50 [47] was > 100 µM (inactive). The GI50 [48] was > 100 µM (inactive), the GI50 [56] was > 100 µM (inactive) and the GI50 [49] was > 100 µM (inactive). For the same compound, the GI50 [50] was > 100 µM (inactive), the GI50 [53] was > 100 µM (inactive) and the GI50 [54] was > 100 µM (inactive).
